Experimental data reported in US20130296344A1, “CHROMENE DERIVATIVES AND THEIR ANALOGA AS WNT PATHWAY ANTAGONISTS” (Ruprecht-Karls-Universitat Heidelberg, priority 2010, published 2013).
Read-outs that look alike come from different tables or passages of the source.

What was measured:
[1] = tested on: HCT116 colon carcinoma cells; experiment: Antiproliferative activity against HCT116 colon carcinoma cells (nuclei count); type: cell-based, human
Experimental: (§1) For examination of cell line-specific cytotoxicity, compounds were applied to human colorectal cancer cells (HCT116, denoted (1); SW480, denoted (2); Dld-1, denoted (3)) and human fibroblasts (HS-68, denoted (4)), cultured in Mc Coy's ((1)) and Dulbecco's Modified Eagles Medium ((2)-(4)), supplemented with 10% ((1)-(3)) and 20% ((4)) fetal calf serum and 1% penicillin/streptomycin. Cells were grown in T75 flasks at 37° C., 5% CO2 and trypsinized when 60-80% confluent by adding 2 ml of 0.25% Trypsin-EDTA (ethylenediaminetetraacetic acid) solution. Cells were then re-suspended into culture medium yielding approx. 750 cells, suspended in 45 microl medium, were plated into each well of a black 384-well plate for fluorescence imaging experiments. 24-36 hr later 5 microl compound solution (100 microM compound dissolved in ultra pure water containing 1% DMSO (dimethylsulfoxide)), were added to achieve a final concentration of 10 microM and were incubated for at least 72 hr. Compound incubation was terminated by (a) fixation and (b) permeabilisation of cells, followed by (c) fluorescence labeling of cell nuclei for cytometric quantification or by immunocytochemistry for microscopic evaluation of cell morphology. […] Solutions were incubated for 15 (a,b) and 30 min (c) in the dark at room temperature. Cells were washed twice between each step with 30 microl PBS. The assay system was miniaturized and adapted to automated workflow using liquid-handling robotics.
(§2) Cell line-specific cytotoxicity was quantified by counting the number of Hoechst labeled nuclei per well of a 384-well plate using a plate cytometer. Data obtained with the cytometer was analysed using standard data analysis software.
(§3) The examination of the antiproliferative activity against human colon carcinoma cells Dld1, HCT116 and SW480 was carried out in analogy to the procedure carried out for HS68. The respective compound applied in increasing concentrations yielding final concentrations per well of 5 nM-90 microM.

[2] = Cytotoxicity in Hek293T (CellTiterGlo); type: cell-based; conditions: human, Hek293T cells, 24 h after compound addition, 5 nM-100 microM, read-out: Hek293T IC50 (cytotoxic activity)
Experimental: (§4) For examination of cytotoxicity in these cancer cell lines the commercial available CellTiterGlo® Reagent (Promega, USA) was used according to the manufactor. Compounds were applied to Hek293T (denoted (a)) or HepG2 (denoted (b)), cultured in Dulbecco's Modified Eagles Medium, supplemented with 10% fetal calf serum and 1% penicillin/streptomycin. Cells were grown in T75 flasks at 37° C., 5% CO2 and trypsinized when 60-80% confluent by adding 2 ml of 0.25% Trypsin-EDTA solution. Cells were then re-suspended into culture medium yielding approx. 4000 cells (a) or 4500 cells (b), suspended in 30 microl medium. 48 h after cell seeding, compounds were added to yield the desired final concentrations. 24 h after compound addition cytotoxicity was evaluated. For this purpose the media was removed and CellTiterGlo® was added according to the manufactors manual. In this assay the luciferase emission readout is directly correlated with the cellular amount of ATP, low luciferase emission thus is reflecting cytotoxicity of a compound.

[3] = tested on: Wnt pathway (Wnt1/Frzd8); experiment: Wnt signaling pathway reporter gene assay (6xTCF-luciferase, Wnt1/Frizzled 8/LRP6 stimulated Hek293T cells); type: cell-based, mouse (Wnt1, human (LRP6)
Excerpt: To screen for small-molecule modulators of the Wnt signaling pathway, a reporter gene based assay describing the modulation of the TCF4 transcription factor was used. […]

[4] = Cytotoxicity in HepG2 (CellTiterGlo); type: cell-based; conditions: human, HepG2 cells, 24 h after compound addition, 5 nM-100 microM, read-out: HepG2 IC50 (cytotoxic activity)
Experimental: as §4

[5] = tested on: Dld1 colon carcinoma cells; experiment: Antiproliferative activity against Dld1 colon carcinoma cells (nuclei count); type: cell-based, human
Experimental: as §1, §2, §3

[6] = tested on: human fibroblasts (HS-68); experiment: Cell line specific cytotoxicity, normal cells HS68 (nuclei count); type: cell-based; conditions: at least 72 hr incubation, Hoechst nuclei count, read-out: HS68 IC50 (influence on normal cells)
Experimental: as §1, §2
Identified hits were further evaluated by visual inspection of fluorescence micrographs obtained from imaging using a conventional fluorescence microscope.

[7] = tested on: SW480 colon carcinoma cells; experiment: Antiproliferative activity against SW480 colon carcinoma cells (nuclei count); type: cell-based; conditions: Homo sapiens, 5 nM-90 microM
Experimental: as §1, §2, §3

[8] = Homo sapiens, HCT-116, colon carcinoma cells, 5 nM-90 microM, nuclei count, read-out: HCT116 IC50
[9] = Homo sapiens, HEK-293T, Hek293T, 6xTCF-luciferase reporter, 24 h incubation, 5 nM-100 microM, read-out: Wnt1/Frzd8 IC50 (Wnt pathway inhibitory activity)
[10] = Homo sapiens, DLD-1, colon carcinoma cells, 5 nM-90 microM, nuclei count, read-out: Dld1 IC50
[11] = Table 7, racemate vs enantiomers, procedure of example 56, read-out: IC50 against colon cancer cell lines HCT 116
[12] = Table 7, racemate vs enantiomers, procedure of example 54, read-out: IC50 against Wnt-Pathway
[13] = Table 7, racemate vs enantiomers, procedure of example 56, read-out: IC50 against colon cancer cell lines DLDl
[14] = Homo sapiens, HEK-293T, 24 h, Hek293T, 6xTCF-luciferase reporter, 24 h incubation, 5 nM-100 microM, read-out: Wnt1/Frzd8 IC50 (Wnt pathway inhibitory activity)

| SMILES | IC50 ([1]; Homo sapiens, HCT-116, Table 7, racemate vs enantiomers, procedure of example 56, read-out: IC50 against colon cancer cell lines HCT 116) [µM] | IC50 [1, 8] [µM] | IC50 at 24 h [2] [µM] | IC50 [3, 9] [µM] | IC50 ([3]; Homo sapiens, HEK-293T, Table 7, racemate vs enantiomers, procedure of example 54, read-out: IC50 against Wnt-Pathway) [µM] | IC50 at 24 h [4] [µM] | IC50 ([5]; Homo sapiens, DLD-1, Table 7, racemate vs enantiomers, procedure of example 56, read-out: IC50 against colon cancer cell lines DLDl) [µM] | IC50 [5, 10] [µM] | IC50 [1, 11] [µM] | IC50 [3, 12] [µM] | IC50 [5, 13] [µM] | IC50 [6] [µM] | IC50 [7] [µM] | IC50 [3, 14] [µM] |
| --- | --- | --- | --- | --- | --- | --- | --- | --- | --- | --- | --- | --- | --- | --- |
| COc1cc(C2C(C#N)=C(N)Oc3c2ccc2ccc(N)nc32)cc(Br)c1OC (racemic) [(20), 3,6-Diamino-1-(3-bromo-4,5-dimethoxy-phenyl)-1H-4-oxa-5-aza-phenanthrene-2-carbonitrile] | 0.005 | 0.015 | > 90 | 0.006 | 0.005 | 37 | 0.01 | 0.014 |  |  |  |  |  |  |
| COc1cc(C2C(C#N)=C(N)Oc3c2ccc2ccc(N)nc32)cc(Br)c1OC (single isomer, unassigned) [(20)-1, 3,6-Diamino-1-(3-bromo-4,5-dimethoxy-phenyl)-1H-4-oxa-5-aza-phenanthrene-2-carbonitrile] |  |  |  |  |  |  |  |  | < 0.005 | < 0.005 | < 0.005 |  |  |  |
| COc1cc(C2C(C#N)=C(N)Oc3c2ccc2ccc(N)nc32)cc(Br)c1OC (single isomer, unassigned) [(20)-2, 3,6-Diamino-1-(3-bromo-4,5-dimethoxy-phenyl)-1H-4-oxa-5-aza-phenanthrene-2-carbonitrile] |  |  |  |  |  |  |  |  | 0.354 | 0.33 | 0.356 |  |  |  |
| COc1cc(C2C(C#N)=C(N)Oc3c2ccc2ccccc32)cc(Br)c1OC (stereo not drawn) [(1), 2-Amino-4-(3-bromo-4,5-dimethoxy-phenyl)-4H-benzo[h]chromene-3-carbonitrile] |  | 0.049 | > 90 | 0.046 |  | > 90 |  | 0.038 |  |  |  | 0.087 | 0.056 |  |
| C=CCOc1c(Br)cc(C2C(C(=O)OCC)=C(N)Oc3c2ccc2ccccc32)cc1OC (stereo not drawn) [(4), 4-(4-Allyloxy-3-bromo-5-methoxy-phenyl)-2-amino-4H-benzo[h]chromene-3-carboxylic acid ethyl ester] |  | 0.146 | > 90 |  |  | > 90 |  | 0.171 |  |  |  | 0.215 | 0.332 | 0.086 |
| CCOC(=O)C1=C(N)Oc2c(ccc3ccccc23)C1c1cc(Br)c(OC)c(OC)c1 (stereo not drawn) [(6), 2-Amino-4-(3-bromo-4,5-dimethoxy-phenyl)-4H-benzo[h]chromene-3-carboxylic acid ethyl ester] |  | 8.6 | > 90 |  |  | > 90 |  | 3.82 |  |  |  | > 90 | 5.96 | 0.855 |
| N#CC1=C(N)Oc2c(ccc3ccccc23)C1c1cc(F)c(F)c(F)c1 (stereo not drawn) [(7), 2-Amino-4-(3,4,5-trifluoro-phenyl)-4H-benzo[h]chromene-3-carbonitrile] |  | 0.922 | > 90 | 0.316 |  | > 90 |  | 0.474 |  |  |  | > 90 | 2.86 |  |
| COc1cc(C2C(C#N)=C(N)Oc3c2ccc2ccc(C)nc32)cc(Br)c1OC (stereo not drawn) [(16), 3-Amino-1-(3-bromo-4,5-dimethoxy-phenyl)-6-methyl-1H-4-oxa-5-aza-phenanthrene-2-carbonitrile] |  | 3.34 | > 90 | 1.13 |  | > 90 |  | 2.9 |  |  |  | 4.95 | 3.16 |  |
| COc1cc(C2C(C#N)=C(N)Oc3c2c(O)nc2ccccc32)cc(Br)c1OC (stereo not drawn) [(17), 2-Amino-4-(3-bromo-4,5-dimethoxy-phenyl)-5-hydroxy-4H-pyrano[3,2-c]quinoline-3-carbonitrile] |  | 0.305 | > 90 | 0.02 |  | > 90 |  | 0.643 |  |  |  |  | 0.577 |  |
| COc1cc(C2C(C#N)=C(N)Oc3c2ccc2ncccc32)cc(Br)c1OC (stereo not drawn) [(18), 6-Amino-8-(3-bromo-4,5-dimethoxy-phenyl)-8H-5-oxa-1-aza-phenanthrene-7-carbonitrile] |  | 0.331 | > 90 | 0.033 |  | > 90 |  | 0.185 |  |  |  | 2.77 | 19.7 |  |
| COc1cc(C2C(C#N)=C(N)Oc3c2ccc2ccc(O)nc32)cc(Br)c1OC (stereo not drawn) [(19), 3-Amino-1-(3-bromo-4,5-dimethoxy-phenyl)-6-hydroxy-1H-4-oxa-5-aza-phenanthrene-2-carbonitrile] |  | 0.017 | > 90 | 0.003 |  | > 90 |  | 0.021 |  |  |  |  |  |  |
| N#CC1=C(N)Oc2cc3ccccc3cc2C1c1cc(F)c(F)c(F)c1 (stereo not drawn) [(28), 2-amino-4-(3,4,5-trifluoro-phenyl)-4H-benzo[g]chromene-3-carbonitrile] |  | 30.3 | > 90 | 2.4 |  | 31.7 |  | 22 |  |  |  | > 90 | 53.6 |  |
| N#CC1=C(N)Oc2cc3ccccc3cc2C1c1cc(F)c(N2CCCCC2)c(F)c1 (stereo not drawn) [(29), 2-amino-4-(3,5-difluoro-4-piperidin-1-yl-phenyl)-4H-benzo[g]chromene-3-carbonitrile] |  | > 90 | > 90 | 6.48 |  | 42.5 |  | > 90 |  |  |  | > 90 | 38.5 |  |
| COc1cc(C2C(C#N)=C(N)Oc3cc4ccccc4cc32)cc(Br)c1OC (stereo not drawn) [(30), 2-Amino-4-(3-bromo-4,5-dimethoxy-phenyl)-4H-benzo[g]chromene-3-carbonitrile] |  | 2.9 | > 90 | 0.697 |  | > 90 |  | 8.97 |  |  |  | 5.15 | 7.6 |  |
| COc1cc(C2C(C#N)=C(N(C)C)Oc3cc4ccccc4cc32)cc(Br)c1OC (stereo not drawn) [(31), 2-Dimethylamino-4-(3-bromo-4,5-dimethoxy-phenyl)-4H-benzo[g]chromene-3-carbonitrile] |  | 10 | > 90 |  |  | > 90 |  | 4.56 |  |  |  | > 90 | 12 | 1.97 |
| N#CC1=C(N)Oc2cc3c(cc2C1c1cc(F)c(F)c(F)c1)OCO3 (stereo not drawn) [(39), 6-Amino-8-(3,4,5-trifluoro-phenyl)-8H-[1,3]dioxolo[4,5-g]chromene-7-carbonitrile] |  | 0.666 | > 90 | 1.36 |  | > 90 |  | 1.08 |  |  |  |  | 2.69 |  |
| CCOC(=O)C1=C(N)Oc2cc3c(cc2C1c1cc(F)c(F)c(F)c1)OCO3 (stereo not drawn) [(40), 6-Amino-8-(3,4,5-trifluoro-phenyl)-8H-[1,3]dioxolo[4,5-g]chromene-7-carboxylic acid ethyl ester] |  | > 90 | > 90 |  |  | > 90 |  | 15.7 |  |  |  | > 90 | 6.38 | 3.42 |
